According to patent US20250269043A1, “TARGETED BIFUNCTIONAL DEGRADERS” (YALE UNIVERSITY, priority 2019, published 2025):
Square brackets hold non-standard residues; d marks the D form. Peptide text beside a SMILES is read from it. * marks the point of attachment. Sta = CC(C)C[C@H](N)[C@@H](O)CC(=O)O; Isovaleryl = CC(C)CC(=O)*

Legend:
[1] = system: HepG2 cells; experiment: Effect of protease inhibitors on degradation of endocytosed α-DNP antibody in HepG2 cells (50 kDa/25 kDa band ratio); details: for inhibition of α-DNP antibody degradation (triplicate): 12 hours, each concentration in triplicate, ALLN 100 and 10 μM, FIG. 117; for inhibition of α-DNP antibody degradation (initial screening): leupeptin 20 and 80 μM, E64 50 and 10 μM, antipain 50 and 100 μM, aprotinin 400 or 800 nM, PMSF 100 or 500 μM, AEBSF 10 μM, ALLN 10 μM, FIG. 116
Source text: The ratiometric comparison of band intensity at 50 kDa divided by the intensity of the 25 kDa was used as a measure of α-DNP antibody degradation. As endocytosed α-DNP antibody is degraded in cells, this ratio decreases. […] Each ratiometric measurement is produced using only the protein fragments present in the cell lysate.
Protease inhibitors which inhibit α-DNP antibody degradation are expected to cause an accumulation of fluorescent intensity at 50 kDa and a decrease in fluorescent intensity at 25 kDa.
Next it was studied whether the inhibition of α-DNP antibody degradation by protease inhibitors was reproducible. Each protease inhibitor concentration was tested in triplicate in HepG2 cells (FIG. 117).
Pepstatin at a concentration 15 μM was included as a negative control.

[2] = system: α-DNP antibody; experiment: In vivo depletion of α-DNP antibody from serum in mice (ELISA); details: i.p. injection; FIG. 79A
Method: FIG. 94 illustrates that serum levels of α-DNP antibody decrease more rapidly following repeated treatment with DNP-GN3. Serum antibody levels were measured using an ELISA assay. Each experimental group contained three mice. Statistical differences in experiments involving in vivo depletion of α-DNP antibody were assessed by repeated measures two-way ANOVA with Tukey's tests for post-hoc comparison of simple effects between each of the treatment groups and PBS.
Single doses of DNP-GN3 were also found to be efficacious at mediating α-DNP antibody depletion, albeit less effectively than daily dosing (FIG. 96). […] Therefore, it was concluded that DNP-GN3 is able to mediate the depletion of a monoclonal antibody from serum, and functions across a wide range of target protein concentrations and dosing regimens.
DNP-GN3 was also found to be efficacious in depleting polyclonal α-DNP antibody from serum collected from mice immunized with DNP-keyhole limpet haemocyanin (KLH) (FIG. 97). […] Thus, the small molecule DNP-GN3 is not restricted in function to only monoclonal mouse antibodies, but is also effective at removing polyclonal α-DNP antibodies from circulation in mice.

[3] = system: HepG2 cells; experiment: MIF-GN3-mediated endocytosis of Alexa 488-labeled human MIF by HepG2 cells; details: MIF 100 nM, MIF-GN3 200 nM; FIG. 132
Method: Human MIF protein was fluorescently labeled with Alexa 488 NHS ester, then incubated with HepG2 cells in the presence of varying levels of MIF-GN3.
The ability of MIF-GN3 to mediate MIF endocytosis over a wide range of target protein concentrations was assessed.
Next, inhibitors of various endocytic pathways were utilized to determine if MIF-GN3 mediates MIF endocytosis in a manner consistent with ASGPR (FIG. 132).

[4] = system: HepG2 cells; experiment: DNP-GN3-mediated endocytosis of fluorescently labeled α-DNP antibody by adherent HepG2 cells; assay type: cell-based, human; details: sodium azide and 2-deoxyglucose as combined treatment; FIG. 89
Method: It was next explored whether DNP-GN3 mediates the endocytosis of fluorescently labeled α-DNP antibody.
To explore the cellular mechanism of antibody uptake, cells were treated with chemical inhibitors of several endocytic pathways (FIG. 89).

[5] = molecular target: T1, human MIF (Homo sapiens, UniProt P14174); experiment: Depletion of human MIF from cell culture supernatant (sandwich ELISA); assay type: cell-based; details: for depletion of MIF from cell culture supernatant, optimized ASGPR-binding motifs / depletion of human MIF from cell culture supernatant: human MIF 100 nM; for depletion of MIF from cell culture supernatant, optimized ASGPR-binding motifs: MIF-AF2 at 40 nM, 200 nM and 1 μM; for depletion of human MIF from cell culture supernatant: FIG. 128A
T1 sequence (P14174 2-115 limits assumed): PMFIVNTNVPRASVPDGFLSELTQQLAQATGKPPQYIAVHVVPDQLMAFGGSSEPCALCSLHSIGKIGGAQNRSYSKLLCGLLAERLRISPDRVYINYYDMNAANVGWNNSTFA
Method: The ability of bifunctional MIF-binding molecules to mediate the depletion of human MIF from cell culture was investigated. In these assays, human MIF was present at a concentration of 100 nM, and a sandwich ELISA assay was utilized to measure the concentration of human MIF remaining in the cell culture supernatant. The closely related bifunctional molecules MIF-GN3, MIF-PEG2-GN3, and MIF-PEG4-GN3 were used, as well as the structurally dissimilar molecule MIF-NVS-PEG3-GN3. […] Based on the ease of its synthesis and its efficacy in this experiment, MIF-GN3 was utilized for further studies. It was next investigated whether the MIF inhibitor 3w mediates MIF depletion from cell culture supernatant. […] When cells were treated with 3w, no depletion of exogenous MIF protein was observed after 24 hours (FIG. 128B).
Bifunctional molecules containing optimized ASGPR-binding motifs are also capable of mediating MIF depletion from cell culture supernatant (FIG. 129). The MIF-binding molecule MIF-AF1, which contains only a single ASGPR-binding sugar, was not effective at mediating depletion of MIF from supernatant at any concentration tested. It is hypothesized that this is due to the compound's low predicted affinity for ASGPR (μM range). […] At a concentration of either 200 nM or 1 μM, MIF-AF2 mediated nearly 100%/o depletion of MLF from the cell culture supernatant after 48 hours. […] In contrast to these molecules, which utilize optimized synthetic ASGPR ligands, the GalNAc-based molecule MIF-GN3 mediated only 67.0% and 56.0% removal of MIF from supernatant after 48 hours at concentrations of 1 μM and 200 nM, respectively. […] At a concentration of 40 nM (4.0 pmol of molecule), MIF-AF3 mediates the removal of 83.2% of MIF present in the cell culture supernatant, or 8.32 pmol of human MIF protein. Therefore, it was concluded that under the conditions of this experiment, MIF-AF3 mediates the depletion of 2.08 molar equivalents of MIF protein.

`Cl.NCCc1ccc(S(=O)(=O)F)cc1` [AEBSF, 4-(2-aminoethyl)benzeneulfonyl fluoride hydrochloride] was tested, and the “inhibition of α-DNP antibody degradation (triplicate)” value (“inhibition … (triplicate)” for short) [1] was “did not significantly inhibit”, the toxicity to cells ([1]; HepG2 cells, pepstatin 5 μM after 24 hours, AEBSF 100 μM, ALLN 100 μM by 24 hours) was “toxic” and the “inhibition of α-DNP antibody degradation (initial screening)” value (from here on “inhibition … (initial screening)”) [1] was “not effective”.
`CC(C)C[C@H](NC(=O)[C@@H](O)[C@H](N)Cc1ccccc1)C(=O)O` [Bestatin] was tested, and the “inhibition … (triplicate)” value [1] was “did not significantly inhibit” and the “inhibition … (initial screening)” value [1] was “not effective”.
With `CC(C)C[C@H](NC(=O)[C@H]1O[C@@H]1C(=O)O)C(=O)NCCCCN=C(N)N` [Compound E64, E64] the “inhibition … (triplicate)” value [1] was “shown to inhibit” and the “inhibition … (initial screening)” value [1] was “effective”.
`O=C(CCOCC(COCCC(=O)NCCOCCOCCO)(COCCC(=O)NCCOCCOCCO)NC(=O)CNC(=O)COCCOCCOCCNc1ccc([N+](=O)[O-])cc1[N+](=O)[O-])NCCOCCOCCO` [DNP-(OH)3] was tested, and the “degradation of injected anti-DNP IgG antibodies in mouse serum” value [2] was “did not show such effect”.
In the case of `CCN(c1nc(N)c(C(=O)N=C(N)N)nc1Cl)C(C)C` [EIPA, 5-(N-Ethyl-N-isopropyl)amiloride], the “effect of endocytic pathway inhibitors on MIF-GN3-mediated MIF endocytosis” value [3] is reported as “significantly inhibited uptake” and the “effect of endocytic pathway inhibitors on intracellular fluorescence (DNP-GN3-mediated uptake)” value [4] is reported as “did not significantly decrease”.
With `O=C(CCCOc1ccc2nc(-c3cn(-c4ccc(O)c(F)c4)nn3)ccc2c1)NCCOCCC(=O)NCCOCCOCCOCCOC[C@]12CO[C@H](O1)[C@H](NC(=O)C(F)(F)F)[C@@H](O)[C@H]2O` [MIF-AF1] the “depletion of MIF from cell culture supernatant, optimized ASGPR-binding motifs” value ([5]; FIG. 129) was “not effective”.
With `O=C(CCOCC(COCCC(=O)NCCOCCOCCOCCOC[C@]12CO[C@H](O1)[C@H](NC(=O)C(F)(F)F)[C@@H](O)[C@H]2O)NC(=O)CCCOc1ccc2nc(-c3cn(-c4ccc(O)c(F)c4)nn3)ccc2c1)NCCOCCOCCOCCOC[C@]12CO[C@H](O1)[C@H](NC(=O)C(F)(F)F)[C@@H](O)[C@H]2O` [MIF-AF2] the “depletion of MIF from the cell culture supernatant” value ([5]; 200 nM or 1 μM, after 48 hours, FIG. 129) was roughly 100% and the “depletion of MIF from cell culture supernatant, optimized ASGPR-binding motifs” value ([5]; FIG. 129) was “effective”.
For `O=C(CCOCC(COCCC(=O)NCCOCCOCCOCCOC[C@]12CO[C@H](O1)[C@H](NC(=O)C(F)(F)F)[C@@H](O)[C@H]2O)(COCCC(=O)NCCOCCOCCOCCOC[C@]12CO[C@H](O1)[C@H](NC(=O)C(F)(F)F)[C@@H](O)[C@H]2O)NC(=O)CCCOc1ccc2nc(-c3cn(-c4ccc(O)c(F)c4)nn3)ccc2c1)NCCOCCOCCOCCOC[C@]12CO[C@H](O1)[C@H](NC(=O)C(F)(F)F)[C@@H](O)[C@H]2O` [MIF-AF3], the “amount of human MIF protein removed” value ([5]; 40 nM (4.0 pmol of molecule)) was 8.32 pmol.
For `CC(=O)NC1C(OCCOCCOCCNC(=O)CCOCC(COCCC(=O)NCCOCCOCCOC2OC(CO)C(O)C(O)C2NC(C)=O)(COCCC(=O)NCCOCCOCCOC2OC(CO)C(O)C(O)C2NC(C)=O)NC(=O)CNC(=O)COCCOCCOCCn2cc(COCCOCCOc3ccc(N4Cc5ccc(O)cc5OC4=O)cc3)nn2)OC(CO)C(O)C1O` (stereo not shown) [MIF-NVS-PEG3-GN3], the “depletion of human MIF from cell culture supernatant” value (“depletion of human MIF” for short) ([5]; 24 hours) was “effective”.
In the case of `CC(=O)NC1C(OCCOCCOCCNC(=O)CCOCC(COCCC(=O)NCCOCCOCCOC2OC(CO)C(O)C(O)C2NC(C)=O)(COCCC(=O)NCCOCCOCCOC2OC(CO)C(O)C(O)C2NC(C)=O)NC(=O)CNC(=O)COCCOCCNC(=O)CCCOc2ccc3nc(-c4cn(-c5ccc(O)c(F)c5)nn4)ccc3c2)OC(CO)C(O)C1O` (stereo not shown) [MIF-PEG2-GN3], the “depletion of exogenous MIF protein from cell culture supernatant” value ([5]; 24 hours, FIG. 128B) is reported as “mediated MIF depletion across a range of concentrations” and the “depletion of human MIF” value ([5]; 24 hours) is reported as “effective”.
In the case of `CC(=O)NC1C(OCCOCCOCCNC(=O)CCOCC(COCCC(=O)NCCOCCOCCOC2OC(CO)C(O)C(O)C2NC(C)=O)(COCCC(=O)NCCOCCOCCOC2OC(CO)C(O)C(O)C2NC(C)=O)NC(=O)CNC(=O)COCCOCCOCCOCCNC(=O)CCCOc2ccc3nc(-c4cn(-c5ccc(O)c(F)c5)nn4)ccc3c2)OC(CO)C(O)C1O` (stereo not shown) [MIF-PEG4-GN3], the “depletion of human MIF” value ([5]; 24 hours) is reported as “effective”.
In the case of `O=S(=O)(F)Cc1ccccc1` [PMSF, Phenylmethylsulfonyl fluoride], the “inhibition … (triplicate)” value [1] is reported as “did not significantly inhibit” and the “inhibition … (initial screening)” value [1] is reported as “not effective”.
In the case of `CC(C)CC(=O)N[C@H](C(=O)N[C@H](C(=O)N[C@@H](CC(C)C)[C@@H](O)CC(=O)N[C@@H](C)C(=O)N[C@@H](CC(C)C)[C@@H](O)CC(=O)O)C(C)C)C(C)C` [Pepstatin] (Isovaleryl-VV[Sta]A[Sta]-OH), the “inhibition … (triplicate)” value [1] is reported as “did not significantly inhibit” and the “inhibition … (initial screening)” value [1] is reported as “not effective”.
`Cl.N` [ammonium chloride, NH4Cl] was tested, and the “effect of endocytic pathway inhibitors on MIF-GN3-mediated MIF endocytosis” value [3] was “near background levels”.
`CO/C1=C\C(C)=C\[C@@H](C)[C@@H](O)[C@@H](C)C/C(C)=C/C=C/[C@H](OC)[C@@H]([C@@H](C)[C@@H](O)[C@H](C)[C@@]2(O)C[C@@H](O)[C@H](C)[C@@H](C(C)C)O2)OC1=O` [bafilomycin, Bafilomycin] was tested, and the “effect of endocytic pathway inhibitors on MIF-GN3-mediated MIF endocytosis” value [3] was “near background levels” and the “effect of endocytic pathway inhibitors on intracellular fluorescence (DNP-GN3-mediated uptake)” value [4] was “significantly decreased”.
For `CCN(CC)CCCC(C)Nc1ccnc2cc(Cl)ccc12` (stereo not shown) [chloroquine, Chloroquine], the “effect of endocytic pathway inhibitors on MIF-GN3-mediated MIF endocytosis” value [3] was “near background levels” and the “effect of endocytic pathway inhibitors on intracellular fluorescence (DNP-GN3-mediated uptake)” value [4] was “significantly decreased”.
`CC(=O)N[C@@H](CC(C)C)C(=O)N[C@@H](CC(C)C)C(=O)N[C@H](C=O)CCCNC(=N)N` [leupeptin, Leupeptin] was tested, and the “inhibition … (triplicate)” value [1] was “shown to inhibit” and the “inhibition … (initial screening)” value [1] was “effective”.
For Aprotinin, the “inhibition … (triplicate)” value [1] was “did not significantly inhibit” and the “inhibition … (initial screening)” value [1] was “not effective”.
